Patent publication US20130116227A1, “BIARYL AMIDE DERIVATIVE OR PHARMACEUTICALLY ACCEPTABLE SALT THEREOF” (DAINIPPON SUMITOMO PHARMA CO., LTD., priority 2010, published 2013)

Target: T1, aldosterone receptor (Rattus norvegicus, UniProt P22199)
T1 construct: centrifuged at 105,000 g for 30 minutes, and then a supernatant was collected as a renal soluble fraction; from tissue; host or cells: rat kidney (adrenalectomized rat), 105,000 g supernatant (cytosol)
T1 sequence (P22199 1-981): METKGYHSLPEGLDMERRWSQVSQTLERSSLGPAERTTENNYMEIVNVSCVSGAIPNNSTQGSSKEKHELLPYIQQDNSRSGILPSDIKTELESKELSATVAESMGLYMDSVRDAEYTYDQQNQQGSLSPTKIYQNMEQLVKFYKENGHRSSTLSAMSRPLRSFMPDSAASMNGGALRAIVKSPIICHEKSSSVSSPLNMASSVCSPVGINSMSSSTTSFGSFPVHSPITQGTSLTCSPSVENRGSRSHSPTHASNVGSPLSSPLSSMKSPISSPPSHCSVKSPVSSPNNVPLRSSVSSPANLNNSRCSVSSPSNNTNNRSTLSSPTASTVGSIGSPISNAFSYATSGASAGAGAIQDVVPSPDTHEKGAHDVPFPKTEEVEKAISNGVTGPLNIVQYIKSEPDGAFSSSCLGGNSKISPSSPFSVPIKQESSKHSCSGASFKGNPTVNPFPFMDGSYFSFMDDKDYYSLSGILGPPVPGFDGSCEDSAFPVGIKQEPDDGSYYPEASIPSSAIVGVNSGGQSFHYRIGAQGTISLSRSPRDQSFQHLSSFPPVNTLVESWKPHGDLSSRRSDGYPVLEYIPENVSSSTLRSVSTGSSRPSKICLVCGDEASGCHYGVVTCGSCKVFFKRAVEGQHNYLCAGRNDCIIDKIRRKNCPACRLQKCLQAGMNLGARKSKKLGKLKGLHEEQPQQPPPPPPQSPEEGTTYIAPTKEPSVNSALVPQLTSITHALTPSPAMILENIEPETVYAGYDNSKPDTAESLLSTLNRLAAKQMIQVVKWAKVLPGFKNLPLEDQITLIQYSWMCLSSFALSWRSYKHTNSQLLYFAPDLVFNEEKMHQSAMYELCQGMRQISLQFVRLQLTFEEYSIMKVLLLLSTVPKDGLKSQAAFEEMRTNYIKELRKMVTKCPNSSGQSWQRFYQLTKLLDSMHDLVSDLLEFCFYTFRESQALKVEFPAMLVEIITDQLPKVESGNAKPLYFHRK
Assay: Binding inhibition test for aldosterone receptor ([3H]aldosterone, rat renal soluble fraction)
Details: [3H]aldosterone 2 nM, rat renal soluble fraction, in the presence of 2 μM RU-486, 4° C. about 18 hours; read-out: MR IC50
Protocol: Binding Inhibition Test for Aldosterone Receptor
A rat was layed open in flank regions (on both sides) to remove both adrenal glands. After stitching up the incision, the rat was returnd to a breeding cage again. After removing the kidney from the rat reared for about 3 to 5 days, the kidney was homogenized in 0.1 M Tris-HCl, 0.25M sucrose, 0.1M Na2MoO4 and 2 mM DTT buffer solution (pH7.4). The resultant was centrifuged at 105,000 g for 30 minutes, and then a supernatant was collected as a renal soluble fraction.
The rat renal soluble fraction (0.5 to 1.5 mg), a labeled ligand [^3H] aldosterone (2 nM) and a test article were reacted in the presence of 2 μM RU-486 (glucocorticoid receptor antagonist) in 100 μL of total amounts at 4° C. for about 18 hours. Afterwards, to the reaction solution was added 50 μL of 5% dextran-coated activated charcoal, and the mixture was immingled, and then centrifuged at 3,000 g for 5 minutes. Then, a supernatant (100 μL) was collected and mixed with a liquid scintillator ACS-II (Amersham) (3.5 mL), and then analyzed its radioactivity by a liquid scintillation counter (manufactured by Packard, Tri Carb 2700TR). A non-specific binding was obtained by addition of 2 μM aldosterone to a reaction solution. […]
Binding inhibition rate (%)=100−{(B−N)/(B0−N)}×100
B: labeled ligand binding amounts in the presence of a test article and a labeled ligand
B0: labeled ligand binding amounts in the absence of a test article
N: labeled ligand binding amounts in the presence of excess aldosterone (2 μM)
Test example 1 was carried out for compounds obtained in the Examples.

Row | Structure (SMILES) | IC50 [nM]
1 | COc1cc(NC(=O)c2ccc(-c3ccccc3C(F)(F)F)c(C)c2)ccc1S(N)(=O)=O [Example 7] | 350
2 | COc1cc(NC(=O)c2ccc(-c3ccccc3C(F)(F)F)cc2)ccc1S(N)(=O)=O [Example 10] | 500
3 | COc1cc(NC(=O)c2ccc(-c3ccccc3OC(F)(F)F)cc2)ccc1S(N)(=O)=O [Example 12] | 610
4 | COc1cc(NC(=O)c2ccc(-c3ccccc3C)cc2)ccc1S(N)(=O)=O [Example 14] | 4700
5 | COc1cc(NC(=O)c2ccc(-c3ccc(F)cc3C(F)(F)F)cc2)ccc1S(N)(=O)=O [Example 17] | 1700
6 | COC(=O)c1ccccc1-c1ccc(C(=O)Nc2ccc(S(N)(=O)=O)c(OC)c2)cc1 [Example 19] | 3300
7 | CCOC(=O)c1ccccc1-c1ccc(C(=O)Nc2ccc(S(N)(=O)=O)c(OC)c2)cc1 [Example 20] | 550
8 | COc1cc(NC(=O)c2ccc(-c3ccccc3CN3CCOCC3)cc2)ccc1S(N)(=O)=O [Example 22] | 1600
9 | COC(=O)c1cc(OC)ccc1-c1ccc(C(=O)Nc2ccc(S(N)(=O)=O)c(OC)c2)cc1 [Example 24] | 2400
10 | COc1cc(NC(=O)c2ccc(-c3ccc(O)cc3C(F)(F)F)cc2)ccc1S(N)(=O)=O [Example 26] | 490
11 | COCc1ccccc1-c1ccc(C(=O)Nc2ccc(S(N)(=O)=O)c(OC)c2)cc1 [Example 28] | 3000
12 | COc1cc(NC(=O)c2ccc(-c3ccccc3C(=O)OC(C)(C)C)cc2)ccc1S(N)(=O)=O [Example 31] | 250
13 | COc1cc(NC(=O)c2ccc(-c3ccccc3C3CCCCC3)cc2)ccc1S(N)(=O)=O [Example 35] | 350
14 | COc1cc(NC(=O)c2ccc(-c3ccccc3C(C)C)cc2)ccc1S(N)(=O)=O [Example 36] | 1400
15 | COc1cc(NC(=O)c2ccc(-c3ccccc3OC(C)C)cc2)ccc1S(N)(=O)=O [Example 39] | 1200
16 | COc1cc(NC(=O)c2ccc(-c3ccccc3OC(F)(F)C(F)F)cc2)ccc1S(N)(=O)=O [Example 40] | 390
17 | COc1cc(NC(=O)c2ccc(-c3ccccc3-c3cccs3)cc2)ccc1S(N)(=O)=O [Example 42] | < 1000
18 | COc1cc(NC(=O)c2ccc(-c3ccccc3-c3nc(C)no3)cc2)ccc1S(N)(=O)=O [Example 46] | 3000
19 | COc1cc(NC(=O)c2ccc(-c3ccccc3C(F)(F)F)cc2)ccc1S(=O)(=O)N(C)C [Example 50] | 700
20 | CNS(=O)(=O)c1ccc(NC(=O)c2ccc(-c3ccccc3C(F)(F)F)cc2)cc1OC [Example 51] | 200
21 | CCc1ccccc1-c1ccc(C(=O)Nc2ccc(S(N)(=O)=O)c(OC)c2)cc1 [Example 56] | 520
22 | COc1cc(NC(=O)c2ccc(-c3ccccc3SC)cc2)ccc1S(N)(=O)=O [Example 57] | 650
23 | COc1cc(C(=O)Nc2ccc(S(N)(=O)=O)c(OC)c2)ccc1-c1ccccc1C(F)(F)F [Example 59] | 260
24 | CCOc1cc(C(=O)Nc2ccc(S(N)(=O)=O)c(OC)c2)ccc1-c1ccccc1C(F)(F)F [Example 60] | 200
25 | COc1cc(NC(=O)c2ccc(-c3ccccc3C(F)(F)F)c(OCc3ccccc3)c2)ccc1S(N)(=O)=O [Example 62] | 1900
26 | CC(=O)OCc1cc(C(=O)Nc2ccc(S(C)(=O)=O)cc2)ccc1-c1ccccc1C(F)(F)F [Example 64] | 400
27 | CS(=O)(=O)c1ccc(NC(=O)c2ccc(-c3ccccc3C(F)(F)F)c(CO)c2)cc1 [Example 65] | 250

Row | Structure (SMILES) | IC50 [nM]
28 | COc1cc(NC(=O)c2ccc(-c3ccccc3C(F)(F)F)c(COC(C)=O)c2)ccc1S(N)(=O)=O [Example 68] | 210
29 | COc1cc(NC(=O)c2ccc(-c3ccccc3C(F)(F)F)c(CO)c2)ccc1S(N)(=O)=O [Example 69] | 220
30 | COc1cc(NC(=O)c2ccc(-c3ccccc3C(F)(F)F)c(CN(C)C)c2)ccc1S(N)(=O)=O [Example 72] | 530
31 | COc1cc(NC(=O)c2ccc(-c3ccccc3C(F)(F)F)c(CN3CCCC3)c2)ccc1S(N)(=O)=O [Example 75] | 880
32 | COc1cc(NC(=O)c2ccc(-c3ccccc3C(F)(F)F)c(CN3CCOCC3)c2)ccc1S(N)(=O)=O [Example 79] | 320
33 | COc1cc(NC(=O)c2ccc(-c3ccccc3C(F)(F)F)c(CCl)c2)ccc1S(N)(=O)=O [Example 81] | 120
34 | COc1cc(NC(=O)c2ccc(-c3ccccc3C(F)(F)F)c(CNC(C)C)c2)ccc1S(N)(=O)=O [Example 85] | 540
35 | COc1cc(NC(=O)c2ccc(-c3ccccc3C(F)(F)F)c(CNC[C@H]3CCCO3)c2)ccc1S(N)(=O)=O [Example 91] | 260
36 | COc1cc(NC(=O)c2ccc(-c3ccccc3C(F)(F)F)c(CNCC3CC3)c2)ccc1S(N)(=O)=O [Example 92] | 410
37 | COc1cc(NC(=O)c2ccc(-c3ccccc3C(F)(F)F)c(CN3CCC3)c2)ccc1S(N)(=O)=O [Example 94] | 820
38 | COc1cc(NC(=O)c2ccc(-c3ccccc3C(F)(F)F)c(COCC3CCCN(C)C3)c2)ccc1S(N)(=O)=O (stereo not drawn) [Example 99] | 2000
39 | COc1cc(NC(=O)c2ccc(-c3ccccc3C(F)(F)F)c(COCCCO)c2)ccc1S(N)(=O)=O [Example 103] | 130
40 | COc1cc(NC(=O)c2ccc(-c3ccccc3C(F)(F)F)c(COCC(OC)OC)c2)ccc1S(N)(=O)=O [Example 104] | 82
41 | COc1cc(NC(=O)c2ccc(-c3ccccc3C(F)(F)F)c(OCCOCc3ccccc3)c2)ccc1S(N)(=O)=O [Example 109] | 190
42 | COc1cc(NC(=O)c2ccc(-c3ccccc3C(F)(F)F)c(OCCO)c2)ccc1S(N)(=O)=O [Example 121] | 520
43 | COc1cc(NC(=O)c2ccc(-c3ccccc3OC(F)(F)F)c(CO)c2)ccc1S(N)(=O)=O [Example 122] | 60
44 | CCc1ccccc1-c1ccc(C(=O)Nc2ccc(S(N)(=O)=O)c(OC)c2)cc1CO [Example 126] | 310
45 | COc1cc(NC(=O)c2ccc(-c3ccc(F)cc3C(F)(F)F)c(CO)c2)ccc1S(N)(=O)=O [Example 127] | 220
46 | COc1ccc(-c2ccc(C(=O)Nc3ccc(S(N)(=O)=O)c(OC)c3)cc2CO)c(C(F)(F)F)c1 [Example 128] | 140
47 | CCNc1cc(C(=O)Nc2ccc(S(N)(=O)=O)c(OC)c2)ccc1-c1ccccc1C(F)(F)F [Example 131] | 170
48 | CCN(CC)c1cc(C(=O)Nc2ccc(S(N)(=O)=O)c(OC)c2)ccc1-c1ccccc1C(F)(F)F [Example 132] | 290
49 | CS(=O)(=O)c1ccc(NC(=O)c2ccc(-c3ccccc3OC(F)(F)F)c(CN3CCSCC3)c2)cc1 [Example 136] | 400
50 | CS(=O)(=O)c1ccc(NC(=O)c2ccc(-c3ccccc3OC(F)(F)F)c(CN3CCC(F)(F)C3)c2)cc1 [Example 142] | 420
51 | CS(=O)(=O)c1ccc(NC(=O)c2ccc(-c3ccccc3OC(F)(F)F)c(CN3CCCC(F)(F)C3)c2)cc1 [Example 144] | 500
52 | CS(=O)(=O)c1ccc(NC(=O)c2ccc(-c3ccccc3OC(F)(F)F)c(CNC[C@H]3CCCO3)c2)cc1 [Example 147] | < 10000
53 | Cn1ccc(CNCc2cc(C(=O)Nc3ccc(S(C)(=O)=O)cc3)ccc2-c2ccccc2OC(F)(F)F)n1 [Example 153] | 470
54 | CCN(CC)Cc1cc(C(=O)Nc2ccc(S(C)(=O)=O)cc2)ccc1-c1ccccc1OC(F)(F)F [Example 159] | 290
